{"source": "patent US20050106153A1", "about": "“Combined physical and immunotherapy for cancer” (WOUND HEALING OF OKLAHOMA, priority 1995, published 2005)", "system": "DMBA-4 metastatic transplantable rat mammary tumor", "assay": "Survival of rats with tumor transplant after laser/sensitizer assisted immunotherapy", "type": "in vivo, Wistar Furth female rats", "source_text": "A diode laser was used in this study. The Industrial Semiconductor Laser ISL50F (McDonnell Douglas Aerospace, St. Louis, Mo.), employs a diode array that is electrically powered by a diode driver. The laser emits radiation at wavelength of 808±10 nm, either in pulsed or in continuous mode. Its maximum near infrared power in the available configuration output is 35 watts. The laser is operated with standard electric power (110/120 VAC). A microprocessor monitors and adjusts the laser operating parameters. Laser energy can be delivered through optical fibers of various sizes. A red laser diode emits 670 nm light at 0.9 mW as the aiming beam. The continuous wave mode was employed in this experiment.\nIn the experiment, different power and duration of laser irradiation, ranging from 3 minutes at 5 watts to 5 minutes at 15 watts, were used. The output power was measured before, during and after the procedure using a Joule/Watt meter (Ophir Optics, Israel). Two types of fiber optics were used: 600 μm and 1200 μm in diameter.\nWistar Furth female rats, age 6 to 7 weeks and weighing 100 to 125 grams, were chosen for the study. The model is a metastatic transplantable rat mammary tumor. The tumor strain was the DMBA-4. Tumor cells (about 25,000 cells) were transplanted to the rats by injection into the superficial inguinal area between the skin and the muscle layer. Certain selected rats were injected with tumor cells in both left and right inguinal areas for simultaneous tumor growth.\nThe rats were fed a special food, a high saturated fat diet, to facilitate the growth of the tumor. The tumor usually grew to about 1 to 4 cm^3 within 10 to 14 days of tumor transplantation. In most cases the rat tumors were treated before they grew beyond 5 cm^3.\nBefore laser treatment, anesthesia was applied (100 μl xylazine and ketamine solution IM) and the hair overlaying the tumor was clipped and shaved. After the treatment, the rats were maintained in separate cages and still fed with the same high fat diet. […]"}
{"smiles": "CC1(C)C(/C=C/C=C/C=C/C=C2\\N(CCCCS(=O)(=O)O)c3ccc4ccccc4c3C2(C)C)=[N+](CCCCS(=O)(=O)[O-])c2ccc3ccccc3c21", "note": "[ICG-H2O, indocyanine green]", "values": [{"measurement": "effect on survival rate", "setting": "second group, treated by laser with ICG-H2O solution, vs control", "value": "did not show any improvement on the survival rate"}, {"measurement": "Survival Days", "setting": "whole group, laser treated, data up to Jan. 16, 1995", "value": "29.0 ± 3.5", "unit": "days"}, {"measurement": "average survival time after the tumor transplant", "setting": "whole group, laser treated, up to Apr. 1, 1995", "value": 29.0, "unit": "days"}]}
